Reference: PubChem BioAssay AID2060501 (Molecular Pharmacology Branch, DTP, NCI, 2025)

System: 282377-053-R-J1-PDC complex spheroids, viability
Assay: Anticancer human tumor 282377-053-R-J1-PDC patient-derived colon adenocarcinoma cell line growth inhibition [GQUAD]
Details: for IC50: curve of first compound; for viability, T/C: stronger effect = lower value
Summary of the method: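 Tumor cells were grown as complex spheroids with HUVEC endothelial cells and mesenchymal stem cells as stroma. G-quadruplex stabilizers were combined with targeted agents over half-log dilutions from near the clinical Cmax, or from 10 microM.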

[1] = second compound 0.0316 µM, first compound 0.0316 µM
[2] = second compound 0.0316 µM, first compound 0.1 µM
[3] = second compound 0.0316 µM, first compound 0.316 µM
[4] = second compound 0.0316 µM, first compound 1 µM
[5] = second compound 0.0316 µM, first compound 3.16 µM
[6] = second compound 0.0316 µM, first compound 10 µM
[7] = second compound 0.1 µM, first compound 0.0316 µM
[8] = second compound 0.1 µM, first compound 0.1 µM
[9] = second compound 0.1 µM, first compound 0.316 µM
[10] = second compound 0.1 µM, first compound 1 µM
[11] = second compound 0.1 µM, first compound 3.16 µM
[12] = second compound 0.1 µM, first compound 10 µM
[13] = second compound 0.316 µM, first compound 0.0316 µM
[14] = second compound 0.316 µM, first compound 0.1 µM
[15] = second compound 0.316 µM, first compound 0.316 µM
[16] = second compound 0.316 µM, first compound 1 µM
[17] = second compound 0.316 µM, first compound 3.16 µM
[18] = second compound 0.316 µM, first compound 10 µM
[19] = second compound 1 µM, first compound 0.0316 µM
[20] = second compound 1 µM, first compound 0.1 µM
[21] = second compound 1 µM, first compound 0.316 µM
[22] = second compound 1 µM, first compound 1 µM
[23] = second compound 1 µM, first compound 3.16 µM
[24] = second compound 1 µM, first compound 10 µM
[25] = second compound 3.16 µM, first compound 0.0316 µM
[26] = second compound 3.16 µM, first compound 0.1 µM
[27] = second compound 3.16 µM, first compound 0.316 µM
[28] = second compound 3.16 µM, first compound 1 µM
[29] = second compound 3.16 µM, first compound 3.16 µM
[30] = second compound 3.16 µM, first compound 10 µM
[31] = second compound 10 µM, first compound 0.0316 µM
[32] = second compound 10 µM, first compound 0.1 µM
[33] = second compound 10 µM, first compound 0.316 µM
[34] = second compound 10 µM, first compound 1 µM
[35] = second compound 10 µM, first compound 3.16 µM
[36] = second compound 10 µM, first compound 10 µM
[37] = second compound 0.0316 µM, first compound 0.000999 µM
[38] = second compound 0.0316 µM, first compound 0.00316 µM
[39] = second compound 0.0316 µM, first compound 0.00999 µM
[40] = second compound 0.0316 µM, first compound 0.0999 µM
[41] = second compound 0.1 µM, first compound 0.000999 µM
[42] = second compound 0.1 µM, first compound 0.00316 µM
[43] = second compound 0.1 µM, first compound 0.00999 µM
[44] = second compound 0.1 µM, first compound 0.0999 µM
[45] = second compound 0.316 µM, first compound 0.000999 µM
[46] = second compound 0.316 µM, first compound 0.00316 µM
[47] = second compound 0.316 µM, first compound 0.00999 µM
[48] = second compound 0.316 µM, first compound 0.0999 µM
[49] = second compound 1 µM, first compound 0.000999 µM
[50] = second compound 1 µM, first compound 0.00316 µM
[51] = second compound 1 µM, first compound 0.00999 µM
[52] = second compound 1 µM, first compound 0.0999 µM
[53] = second compound 3.16 µM, first compound 0.000999 µM
[54] = second compound 3.16 µM, first compound 0.00316 µM
[55] = second compound 3.16 µM, first compound 0.00999 µM
[56] = second compound 3.16 µM, first compound 0.0999 µM
[57] = second compound 10 µM, first compound 0.000999 µM
[58] = second compound 10 µM, first compound 0.00316 µM
[59] = second compound 10 µM, first compound 0.00999 µM
[60] = second compound 10 µM, first compound 0.0999 µM
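Also: spheroids exposed to compounds for 7 days before readout.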
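For viability, T/C in this document: percent of vehicle DMSO control viability with 100% = untreated-like growth.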

## C=CC(=O)N1CCN(c2nc(=O)n(-c3c(C)ccnc3C(C)C)c3nc(-c4c(O)cccc4F)c(F)cc23)C(C)C1 (stereo not drawn) + Cc1cnc(CNC(=O)c2c(=O)c3ccc(N4CCCN(C)CC4)nc3n3c2sc2ccccc23)cn1
Second compound 0.0316 µM
  IC50: > 10000 nM
Second compound 0.1 µM
  IC50: > 10000 nM
Second compound 0.316 µM
  IC50: > 10000 nM
Second compound 1 µM
  IC50: > 10000 nM
Second compound 3.16 µM
  IC50: > 10000 nM
Second compound 10 µM
  IC50: 3740 nM
[1]
  viability, T/C: 129%
[2]
  viability, T/C: 116%
[3]
  viability, T/C: 115%
[4]
  viability, T/C: 116%
[5]
  viability, T/C: 103%
[6]
  viability, T/C: 100%
[7]
  viability, T/C: 119%
[8]
  viability, T/C: 91.7%
[9]
  viability, T/C: 115%
[10]
  viability, T/C: 122%
[11]
  viability, T/C: 110%
[12]
  viability, T/C: 94.1%
[13]
  viability, T/C: 89.8%
[14]
  viability, T/C: 98.9%
[15]
  viability, T/C: 102%
[16]
  viability, T/C: 98.3%
[17]
  viability, T/C: 103%
[18]
  viability, T/C: 90.8%
[19]
  viability, T/C: 77.2%
[20]
  viability, T/C: 64.2%
[21]
  viability, T/C: 74.7%
[22]
  viability, T/C: 80.4%
[23]
  viability, T/C: 76%
[24]
  viability, T/C: 57.4%
[25]
  viability, T/C: 60.2%
[26]
  viability, T/C: 51%
[27]
  viability, T/C: 63.2%
[28]
  viability, T/C: 53.6%
[29]
  viability, T/C: 61.9%
[30]
  viability, T/C: 53.6%
[31]
  viability, T/C: 52.2%
[32]
  viability, T/C: 40.8%
[33]
  viability, T/C: 58.4%
[34]
  viability, T/C: 56.6%
[35]
  viability, T/C: 56.9%
[36]
  viability, T/C: 33%

## CC[C@@]1(O)C(=O)OCc2c1cc1n(c2=O)Cc2cc3c(CN(C)C)c(O)ccc3nc2-1 + Cc1cnc(CNC(=O)c2c(=O)c3ccc(N4CCCN(C)CC4)nc3n3c2sc2ccccc23)cn1
Second compound 0.0316 µM
  IC50: > 316 nM
Second compound 0.1 µM
  IC50: > 316 nM
Second compound 0.316 µM
  IC50: > 316 nM
Second compound 1 µM
  IC50: 115 nM
Second compound 3.16 µM
  IC50: 10.8 nM
Second compound 10 µM
  IC50: < 0.999 nM
[37]
  viability, T/C: 136%
[38]
  viability, T/C: 115%
[39]
  viability, T/C: 125%
[1]
  viability, T/C: 107%
[40]
  viability, T/C: 79.7%
[3]
  viability, T/C: 66.7%
[41]
  viability, T/C: 110%
[42]
  viability, T/C: 116%
[43]
  viability, T/C: 89.5%
[7]
  viability, T/C: 90.9%
[44]
  viability, T/C: 84.2%
[9]
  viability, T/C: 73.1%
[45]
  viability, T/C: 96.3%
[46]
  viability, T/C: 87.3%
[47]
  viability, T/C: 86.4%
[13]
  viability, T/C: 88.6%
[48]
  viability, T/C: 71%
[15]
  viability, T/C: 57.7%
[49]
  viability, T/C: 72.4%
[50]
  viability, T/C: 66.6%
[51]
  viability, T/C: 58.3%
[19]
  viability, T/C: 50.9%
[52]
  viability, T/C: 53.1%
[21]
  viability, T/C: 47.5%
[53]
  viability, T/C: 54.1%
[54]
  viability, T/C: 56.6%
[55]
  viability, T/C: 50.1%
[25]
  viability, T/C: 41.8%
[56]
  viability, T/C: 51.3%
[27]
  viability, T/C: 47.3%
[57]
  viability, T/C: 46.1%
[58]
  viability, T/C: 50.2%
[59]
  viability, T/C: 49.8%
[31]
  viability, T/C: 49.2%
[60]
  viability, T/C: 43.3%
[33]
  viability, T/C: 48.6%

## CCc1c2c(nc3ccc(O)cc13)-c1cc3c(c(=O)n1C2)COC(=O)[C@]3(O)CC + Cc1cnc(CNC(=O)c2c(=O)c3ccc(N4CCCN(C)CC4)nc3n3c2sc2ccccc23)cn1
Second compound 0.0316 µM
  IC50: 36.9 nM
Second compound 0.1 µM
  IC50: 49.8 nM
Second compound 0.316 µM
  IC50: 24.8 nM
Second compound 1 µM
  IC50: 8.72 nM
Second compound 3.16 µM
  IC50: < 0.999 nM
Second compound 10 µM
  IC50: < 0.999 nM
[37]
  viability, T/C: 117%
[38]
  viability, T/C: 96.3%
[39]
  viability, T/C: 57.4%
[1]
  viability, T/C: 56.4%
[40]
  viability, T/C: 43.5%
[3]
  viability, T/C: 27.2%
[41]
  viability, T/C: 88.4%
[42]
  viability, T/C: 79.4%
[43]
  viability, T/C: 57.3%
[7]
  viability, T/C: 59.4%
[44]
  viability, T/C: 46.5%
[9]
  viability, T/C: 27.9%
[45]
  viability, T/C: 81.8%
[46]
  viability, T/C: 67.9%
[47]
  viability, T/C: 55%
[13]
  viability, T/C: 51.5%
[48]
  viability, T/C: 38.5%
[15]
  viability, T/C: 28.8%
[49]
  viability, T/C: 66%
[50]
  viability, T/C: 58.1%
[51]
  viability, T/C: 44.4%
[19]
  viability, T/C: 42.9%
[52]
  viability, T/C: 35.9%
[21]
  viability, T/C: 25.1%
[53]
  viability, T/C: 46.6%
[54]
  viability, T/C: 41.5%
[55]
  viability, T/C: 37.5%
[25]
  viability, T/C: 40.9%
[56]
  viability, T/C: 33.4%
[27]
  viability, T/C: 19.4%
[57]
  viability, T/C: 46.6%
[58]
  viability, T/C: 38.4%
[59]
  viability, T/C: 38.9%
[31]
  viability, T/C: 40.9%
[60]
  viability, T/C: 32.6%
[33]
  viability, T/C: 11.1%

## COc1cc(C2c3cc4c(cc3C(OC3OC5COC(C)OC5C(O)C3O)C3COC(=O)C23)OCO4)cc(OC)c1O (stereo not drawn) + Cc1cnc(CNC(=O)c2c(=O)c3ccc(N4CCCN(C)CC4)nc3n3c2sc2ccccc23)cn1
Second compound 0.0316 µM
  IC50: > 10000 nM
Second compound 0.1 µM
  IC50: 9720 nM
Second compound 0.316 µM
  IC50: > 10000 nM
Second compound 1 µM
  IC50: > 10000 nM
Second compound 3.16 µM
  IC50: 979 nM
Second compound 10 µM
  IC50: 337 nM
[1]
  viability, T/C: 127%
[2]
  viability, T/C: 95%
[3]
  viability, T/C: 126%
[4]
  viability, T/C: 90%
[5]
  viability, T/C: 68.3%
[6]
  viability, T/C: 50.8%
[7]
  viability, T/C: 109%
[8]
  viability, T/C: 91.3%
[9]
  viability, T/C: 107%
[10]
  viability, T/C: 76.1%
[11]
  viability, T/C: 72.7%
[12]
  viability, T/C: 48.6%
[13]
  viability, T/C: 103%
[14]
  viability, T/C: 91.9%
[15]
  viability, T/C: 87.1%
[16]
  viability, T/C: 68.8%
[17]
  viability, T/C: 66.4%
[18]
  viability, T/C: 50.9%
[19]
  viability, T/C: 70.7%
[20]
  viability, T/C: 51.3%
[21]
  viability, T/C: 70.2%
[22]
  viability, T/C: 63%
[23]
  viability, T/C: 62.7%
[24]
  viability, T/C: 41.6%
[25]
  viability, T/C: 60.5%
[26]
  viability, T/C: 57.5%
[27]
  viability, T/C: 49.8%
[28]
  viability, T/C: 48.5%
[29]
  viability, T/C: 52.1%
[30]
  viability, T/C: 37.4%
[31]
  viability, T/C: 45.4%
[32]
  viability, T/C: 49.7%
[33]
  viability, T/C: 56.3%
[34]
  viability, T/C: 49.1%
[35]
  viability, T/C: 42.1%
[36]
  viability, T/C: 26.3%
